The values that follow come from patent US8993585B2, “Cyclic amine substituted pyrimidinediamines as PKC inhibitors” (Rigel Pharmaceuticals, Inc., priority 2007, dated 2015).

One may read the IC50 as the point on the concentration scale where inhibition reaches its midpoint. Read a high IC50 as lower potency.

The first assay concerns Human primary T cells. Put plainly: IL-2 ELISA, Human Primary T Cell, Anti-CD3+CD28+ (Example 3). The format is cell-based. The settings on record: Homo sapiens, T-cell, 24 h, anti-CD3+CD28 stimulation. As to the method: Human primary T cell isolation and culture: Human primary T cells were prepared as follows. […] The cells at the serum:ficoll interface were recovered and washed twice with 5 volumes of PBS. […] The primary T-cells were then washed twice with PBS to remove the IL-2.
Primary T cell stimulation and IL2 ELISA: Human primary T cells (100,000 cells per well) were pre-incubated with or without test compound in Yssel's medium for 1 hr at 37° C. Cells were then stimulated by transferring them to round-bottom 96-well plates pre-coated with 1 ug/ml αCD3 and 5 μg/ml αCD28. For counter assay, cells were instead stimulated by adding 8× stock solutions of PMA and ionomycin in Yssels (for final concentrations of 0.5 ng/ml PMA and 0.1 uM ionomycin, both from Calbiochem).
`CC1(C)CC(Nc2nc(Nc3ccc4c(c3)OCC(C(N)=O)O4)ncc2F)CC(C)(C)N1` (stereo not drawn) [II-159]: the IC50 is 8910 nM. This counts as single-digit micromolar.
For `COc1cc(Nc2ncc(C)c(NC3CC(C)(C)N(C)C(C)(C)C3)n2)cc(OC)c1` [Compound I-425], the IC50 was 1140 nM.
In the case of `CCOc1ccc2nc(Nc3ncc(F)c(NC4CC(C)(C)N(C)C(C)(C)C4)n3)sc2c1` [II-18], the IC50 came out at 2120 nM.
In turn, `CCN(CC)C1CCC(Nc2nc(Nc3ccc(OC)c(Cl)c3)ncc2F)CC1` (stereo not drawn) [IV-5, N2-(3-Chloro-4-methoxy)phenyl-N4-(4-diethylamino)cyclohexyl-5-fluoro-2,4-pyrimidinediamine] gave an IC50 of 4610 nM.
In the case of `CCN(CC)c1ccc(-c2csc(Nc3ncc(F)c(NC4CC(C)(C)N(C)C(C)(C)C4)n3)n2)cc1` [II-135], half-maximal inhibition (IC50) required 3600 nM.
Consider `CC(C)n1c(=O)oc2cc(Nc3ncc(F)c(NC4CC(C)(C)N(C)C(C)(C)C4)n3)ccc21` [II-47], for which 229 nM corresponded to half-maximal inhibition (IC50).
Turning to `Cc1ccc(C)n1-c1cc(Nc2ncc(F)c(NC3CC(C)(C)NC(C)(C)C3)n2)ccc1OCCN1CCCC1` [Compound I-442], inhibition was half-maximal at 1770 nM (IC50).
Take `COc1cc(Nc2ncc(F)c(N(Cc3ccccc3)C3CC(C)(C)N(C)C(C)(C)C3)n2)cc(OC)c1` [Compound I-308]: the IC50 came to 809 nM.
On to `CN1C(C)(C)CC(Nc2nc(Nc3nc(-c4cccnc4)cs3)ncc2F)CC1(C)C` [II-136], for which 910 nM corresponded to half-maximal inhibition (IC50).
The same measure, in the same setting: the value for `COc1ccc(-c2csc(Nc3ncc(F)c(NC4CC(C)(C)N(C)C(C)(C)C4)n3)n2)cc1OC` [II-138] was 710 nM; that for `CCn1c(=O)oc2cc(Nc3ncc(F)c(NC4CC(C)(C)N(C)C(C)(C)C4)n3)ccc21` [II-46] was 391 nM; that for `CN1C(=O)C(C)(C)Oc2cc(Nc3ncc(F)c(NC4CC(C)(C)N(C)C(C)(C)C4)n3)cnc21` [II-54] was 373 nM.
As to `COc1cc(Nc2ncc(F)c(NC3CC(C)(C)NC(C)(C)C3)n2)cc(OCCn2cccc2)c1` [Compound I-438], the IC50 is 300 nM.
Compound `Cc1ccc(Nc2ncc(F)c(N(Cc3ccccc3)C3CC(C)(C)N(C)C(C)(C)C3)n2)cc1C#N` [Compound I-313] showed an IC50 of 793 nM.
Same read-out and setting: the value for `COC(=O)C(C)N1C(C)(C)CC(Nc2nc(Nc3ccc(C)c(C#N)c3)ncc2F)CC1(C)C` (stereo not drawn) [Compound I-296] was 1040 nM; that for `CCN1C(=O)COc2cc(Nc3ncc(C#N)c(NC4CC(C)(C)N(C)C(C)(C)C4)n3)ccc21` [II-71] was 145 nM.
Same read-out and setting: the value for `CN1C(C)(C)CC(N(Cc2ccccc2)c2nc(Nc3ccc(N4CCN(S(C)(=O)=O)CC4)c(C(F)(F)F)c3)ncc2F)CC1(C)C` [Compound I-310] was 1410 nM.
`CN1C(C)(C)CC(Nc2nc(Nc3ccc(OC(F)(F)F)cc3)ncc2F)CC1(C)C` [Compound I-231] yielded an IC50 of 1750 nM.
The compound `CN1C(C)(C)CC(Nc2nc(Nc3nc(-c4ccc(Oc5ccccc5)cc4)cs3)ncc2F)CC1(C)C` [II-139] displayed a concentration for half-maximal inhibition (IC50) of 910 nM.
Turning to `COc1cc(Nc2ncc(F)c(NC3CC(C)(C)N(C)C(C)(C)C3)n2)cc(-n2nnnc2C)c1` [Compound I-358], the IC50 turned out to be 29.5 nM. This IC50 is about 31-fold lower than that of the compound before.

Still in this assay, the particulars now being: T-cell, anti-CD3+CD28 stimulation, 24 hours.
`CN1C(C)(C)CC(N(Cc2ccccc2)c2nc(Nc3ccc4c(c3)OCCO4)ncc2F)CC1(C)C` [II-86] displayed an IC50 of 1260 nM.

Still in this assay, the particulars now being: anti-CD3+CD28 stimulation, 24 hours.
The compound `Cc1cnc(Nc2ccc(N3CCN(C)CC3)c(C(F)(F)F)c2)nc1NC1CC(C)(C)N(C)C(C)(C)C1` [Compound I-30] returned an IC50 of 335 nM.
Turning to `CN1C(C)(C)CC(Nc2nc(Nc3ccc(C(=O)NCCc4ccccn4)c(Cl)c3)ncc2F)CC1(C)C` [Compound I-362], half-maximal inhibition (IC50) was put at 667 nM. Compared with the last compound, the IC50 is about 2-fold higher.
Take `CCN(CC)C1CCC(Nc2nc(Nc3ccc(N4CCN(C)CC4)c(C(F)(F)F)c3)ncc2F)CC1` (stereo not drawn) [IV-7, N4-(4-Diethylamino)cyclohexyl-5-fluoro-N2-[4-(4-methylpiperazino)-3-trifluoromethyl]phenyl-2,4-pyrimidinediamine]: the IC50 was found to be 3620 nM.
Same read-out and setting: the value for `Cc1ccc(Nc2ncc(F)c(NC3CCC(C)(C)N(C)C(C)(C)C3)n2)cc1C#N` (stereo not drawn) [Compound I-263, 5-Fluoro-N2-[4-(methyl)-3-cyano]phenyl-N4-(1,2,2,7,7-pentamethylazepan-4-yl)-2,4-pyrimidinediamine] was 10900 nM; that for `CN1C(C)(C)CC(Nc2nc(Nc3ccc(OCC(N)=O)cc3)ncc2F)CC1(C)C` [Compound I-134] was 2430 nM.
For `CN1CCN(c2ccc(Nc3ncc(F)c(NC4CC(C)(C)NC(C)(C)C4)n3)cc2Cl)CC1` [Compound I-256], the IC50 was 246 nM.
The compound `Cc1cnc(Nc2ccc(N3CCN(C)CC3)c(Cl)c2)nc1NC1CC(C)(C)N(C)C(C)(C)C1` [Compound I-29] came in with an IC50 of 463 nM.
`COC(=O)N1CCN(c2ccc(Nc3ncc(F)c(NC4CC(C)(C)N(C)C(C)(C)C4)n3)cc2Cl)CC1` [Compound I-62] gave an IC50 of 257 nM.
As to `Cc1nnnn1-c1ccc(Nc2ncc(F)c(NC3CC(C)(C)N(C)C(C)(C)C3)n2)cc1` [Compound I-454], half-maximal inhibition (IC50) required 6250 nM.
Still for that read-out and setting: the value for `CCNC(=O)Nc1ccc(Nc2ncc(F)c(NC3CC(C)(C)N(C)C(C)(C)C3)n2)cc1` [Compound I-149] was 4360 nM; that for `COc1ccc(Nc2ncc(F)c(NC3CC(C)(C)N(C)C(C)(C)C3)n2)cc1F` [Compound I-127] was 1140 nM.
`CN1C(C)(C)CC(Nc2nc(Nc3ccc(-c4ccncc4)c(Cl)c3)ncc2F)CC1(C)C` [Compound I-99] showed an IC50 of 304 nM.
`COC(=O)/C=C/N1C(C)(C)CC(Nc2nc(Nc3ccc(OC)c(OC)c3)ncc2F)CC1(C)C` [Compound I-297]: the IC50 was found to be 24700 nM. Compared with the last compound, the IC50 is about 81-fold higher.
`CCOC(=O)c1cnc(Nc2ccc(N3CCN(C)CC3)c(Cl)c2)nc1NC1CC(C)(C)N(C)C(C)(C)C1` [Compound I-89]: the IC50 came out at 5800 nM.
For the compound `COc1cc(Nc2ncc(C(N)=O)c(NC3CC(C)(C)NC(C)(C)C3)n2)cc(-n2nnnc2C)c1` [Compound I-387], the IC50 is 3470 nM.
As to `CCOc1ccc(Nc2ncc(F)c(NC3CC(C)(C)N(C)C(C)(C)C3)n2)cc1-n1nnnc1CC` [Compound I-409], the IC50 turned out to be 50 nM. This IC50 lies about 69-fold lower than the previous one.
Regarding `CN1C(C)(C)CC(Nc2nc(Nc3cccc(-c4cccnc4)c3)ncc2F)CC1(C)C` [Compound I-107], the IC50 was determined as 750 nM.
Compound `Cc1cc(C)cc(Nc2ncc(C)c(NC3CC(C)(C)N(C)C(C)(C)C3)n2)c1` [Compound I-17] showed an IC50 of 963 nM.
Same read-out and setting: the value for `CSc1nnnn1-c1cccc(Nc2ncc(C(N)=O)c(NC3CC(C)(C)NC(C)(C)C3)n2)c1` [Compound I-457] was 1670 nM; that for `COc1cc(Nc2ncc(F)c(NC3CC(C)(C)NC(C)(C)C3)n2)cc(-n2nnnc2C)c1` [Compound I-372] was 92.1 nM; that for `CN1C(C)(C)CC(Nc2nc(Nc3ccc(C#N)c(Cl)c3)ncc2C(F)(F)F)CC1(C)C` [Compound I-33] was 532 nM.
In turn, `COCCOc1cc(Nc2ncc(F)c(NC3CC(C)(C)N(C)C(C)(C)C3)n2)ccc1OC` [Compound I-413] came in with a half-maximal inhibitory concentration (IC50) of 6150 nM. Against the preceding compound, the IC50 is about 12-fold higher.
On to `Cc1nnnn1-c1cccc(Nc2ncc(C#N)c(NC3CC(C)(C)N(C)C(C)(C)C3)n2)c1` [Compound I-462], for which the IC50 was found to be 270 nM.
Same read-out and setting: the value for `CN1C(C)(C)CC(Nc2nc(Nc3ccc(N4CCOCC4)c(C(F)(F)F)c3)ncc2F)C1(C)C` (stereo not drawn) [Compound I-287, 5-Fluoro-N2-[4-morpholino-3-(trifluoromethyl)]phenyl-N4-(1,2,2,5,5-pentamethylpyrrolidin-3-yl)-2,4-pyrimidinediamine] was 2190 nM; that for `CN1C(C)(C)CC(Nc2nc(Nc3ccc(F)c(-c4cccnc4)c3)ncc2F)CC1(C)C` [Compound I-180] was 914 nM; that for `CN1C(C)(C)CC(Nc2nc(Nc3ccc(F)c(Cl)c3)ncc2F)CC1(C)C` [Compound I-333] was 586 nM.
As for `CCOC(=O)c1cnc(Nc2ccc(N3CCN(S(C)(=O)=O)CC3)c(Cl)c2)nc1NC1CC(C)(C)N(C)C(C)(C)C1` [Compound I-84], the IC50 was found to be 6850 nM.
On the same count and under the same terms, the value for `Cc1nnnn1-c1cccc(Nc2ncc(F)c(NC3CC(C)(C)N(C)C(C)(C)C3)n2)c1` [Compound I-396] was 100 nM; that for `CC(C)OC(=O)Nc1cccc(Nc2ncc(F)c(NC3CC(C)(C)N(C)C(C)(C)C3)n2)c1` [Compound I-139] was 1570 nM; that for `Cc1cc(Nc2ncc(F)c(NC3CC(C)(C)N(C)C(C)(C)C3)n2)ccc1Br` [Compound I-111] was 490 nM.
The same measure, in the same setting: the value for `CC(=O)N1C(C)(C)CC(Nc2nc(Nc3ccc(N4CCN(C)CC4)c(C(F)(F)F)c3)ncc2F)CC1(C)C` [Compound I-219] was 20800 nM; that for `COc1cc(Nc2ncc(F)c(NC3CC(C)(C)NC(C)(C)C3)n2)cc(OC)c1` [Compound I-371] was 550 nM; that for `CN1C(C)(C)CC(Nc2nc(Nc3ccc4c(c3)OC(C)(C)C(=O)N4)ncc2F)CC1(C)C` [II-33] was 407 nM.
Take `Cc1ccc(Nc2ncc(Br)c(NC3CC(C)(C)N(C)C(C)(C)C3)n2)cc1C#N` [Compound I-277]: half-maximal inhibition (IC50) required 206 nM.
In the case of `CN1C(C)(C)CC(Nc2nc(Nc3ccc(N4CCCC4)c(OC(F)F)c3)ncc2F)CC1(C)C` [Compound I-237], the IC50 stood at 887 nM.
`CN1CCN(c2ncc(Nc3ncc(F)c(NC4CC(C)(C)N(C)C(C)(C)C4)n3)cc2Cl)CC1` [Compound I-288] had an IC50 of 374 nM.
As for `CN1C(C)(C)CC(Nc2nc(Nc3ccc(OCCN4CCOCC4)c(Cl)c3)ncc2F)CC1(C)C` [Compound I-368], half-maximal inhibition (IC50) was put at 297 nM. The IC50 values of the last two compounds are within 1.5-fold of each other.
On the same count and under the same terms, the value for `CCOC(=O)c1cnc(Nc2ccc(OC)c(Cl)c2)nc1NC1CC(C)(C)N(C)C(C)(C)C1` [Compound I-80] was 2690 nM; that for `CN1C(C)(C)CC(Nc2nc(Nc3ccc4c(c3)OCO4)ncc2F)CC1(C)C` [II-32] was 864 nM.
